Data taken from patent US20230413810A1, “SANITISING FORMULATION” (Lumendo AG, priority 2020, published 2023).

Legend:
Assay type in all cases: cell-based
P. aeruginosa = assay: Direct contact test on glass plates, Log10 reduction of P. aeruginosa
[1] = tested on: Staphylococcus aureus (ATCC 6538); assay: Direct contact test on glass plates, Log10 reduction of S. aureus (CFU/mL)
Procedure: The anti-microbial-retaining hydrogel formulation was prepared by the addition of Tetronic® 1107 tetramethacrylate (12.64% w/w), prepared according to Example 6, to glycerol (29.48% w/w). Then triethanolamine (0.84% w/w) was added in water (7.58% w/w), diphenyliodonium hexafluorophosphate (0.067% w/w) and 4-(diphenylphosphino)benzoic acid (0.166% w/w) were added in ethanol (8.16% w/w) and a specified amount of anti-microbial agent was added in PBS buffer ×1 (40.01% w/w). The mixture was placed into a thermoshaker and heated and shaken (50° C., 1200 rpm) for 20 minutes. Next, ethyl (2,4,6-trimethylbenzoyl) phenylphosphinate (0.31% w/w) and eosin Y (0.00125% w/w) were added to the mixture in ethanol (4.01% w/w) and the solution was mixed at room temperature for 20 seconds.
A 15 mL falcon tube containing 5 mL of BHI medium was inoculated with Staphylococcus aureus (ATCC 6538) and incubated overnight at 37° C. on a shaker (140 rpm). On the next day, a 15 mL falcon tube containing 5 mL BHI medium was inoculated with 100 μL of the overnight culture and incubated at 37° C. for 3.5 hours at 140 rpm.
Glass plates (18 mm×18 mm) were added with anti-microbial-retaining hydrogel formulation (50 μL) and covered with another glass plate (18 mm×18 mm) in the well of a 6-well plate. Samples were polymerized by the light from the laminar flow hood for 30 minutes. […]
S. aureus cultures were diluted to an OD600 (optical density at λ=600 nm) of 0.2 and 50 μL added to the glass plates (18 mm×18 mm) covered with the anti-microbial retaining hydrogel formulation of the present invention. Samples were covered with a glass plate (18 mm×18 mm) and incubated at 37° C. for 60 minutes. Bacteria were recovered by addition of 1 mL of BHI medium to each well and manually shaking the plate for 30 seconds. From each solution a four times ten-fold dilution series was prepared, resulting in 5 concentrations (each time adding 20 μL of the previous solution to 180 μL of PBS). A BHI agar plate was divided into 5 sectors and from each dilution, three drops of 10 μL were added to one sector. The plates were incubated overnight at 37° C. From the dilution containing 3-30 colonies, the CFU/mL (colony forming units per mL) were calculated and recorded.
Samples were prepared as triplicates. As negative controls, glass plates with no hydrogel and with hydrogel but no anti-microbial agent were prepared. As a control group, glass plates were added with stock solutions of the appropriate disinfectant in PBS (50 μL) at the same concentration as in the hydrogel.
For the washing of samples, the polymerized hydrogel sample was washed with 1 mL PBS solution, after which the PBS solution was removed. The sample was let air dry for 15 minutes before bacterial was then applied as described above.

[2] = tested on: Staphylococcus aureus (ATCC 6538); assay: as above; remark: listed apart in the source
[3] = modified anti-microbial agents 1% w/w in hydrogel formulation according to Example 22
[4] = DDAC 0.1% w/w in polymerized hydrogel vs other sanitizing agents on glass surfaces, 0 washes
[5] = DDAC 0.1% w/w in polymerized hydrogel vs other sanitizing agents on glass surfaces, 5 washes with 1 mL water
[6] = unmodified anti-microbial agents 0.1% w/w in hydrogel (Sterilium with no hydrogel), 0 washes with 1 mL water
[7] = unmodified anti-microbial agents 0.1% w/w in hydrogel (Sterilium with no hydrogel), 5 washes with 1 mL water
[8] = unmodified anti-microbial agents 1.0% w/w in hydrogel (Sterilium with no hydrogel), 0 washes with 1 mL water
[9] = unmodified anti-microbial agents 1.0% w/w in hydrogel (Sterilium with no hydrogel), 5 washes with 1 mL water

Molecule: 2-(N,N,N-Cetylmethylbenzylammonium)ethyl methacrylate bromide
- Log10 reduction of P. aeruginosa (P. aeruginosa; [3]): <1 Log10
- Log10 reduction of S. aureus [1, 3]: >2 Log10

Molecule: 2-(N,N,N-Dodecyldimethylammonium)ethyl methacrylate bromide
- Log10 reduction of P. aeruginosa (P. aeruginosa; [3]): 1 Log10
- Log10 reduction of S. aureus [1, 3]: 3 Log10

Molecule: 2-(N,N,N-dodecylmethylbenzylammonium)ethyl methacrylate bromide
- Log10 reduction of P. aeruginosa (P. aeruginosa; [3]): 3 Log10
- Log10 reduction of S. aureus [1, 3]: >4 Log10

Molecule: 9-(N,N,N-Benzylbutylmethylammonium)nonyl methacrylate bromide
- Log10 reduction of P. aeruginosa (P. aeruginosa; [3]): 1 Log10
- Log10 reduction of S. aureus [1, 3]: <1 Log10

Molecule: 12-(N,N,N-Benzylbutylmethylammonium)dodecyl methacrylate bromide
- Log10 reduction of P. aeruginosa (P. aeruginosa; [3]): 1 Log10
- Log10 reduction of S. aureus [1, 3]: >4 Log10

Molecule: 12-(N,N,N-Butyldimethylammonium)dodecyl methacrylate bromide
- Log10 reduction of P. aeruginosa (P. aeruginosa; [3]): 1 Log10
- Log10 reduction of S. aureus [1, 3]: >1 Log10

Molecule: 16-(N,N,N-Benzylbutylmethylammonium)cetyl methacrylate bromide
- Log10 reduction of P. aeruginosa (P. aeruginosa; [3]): <1 Log10
- Log10 reduction of S. aureus [1, 3]: >4 Log10

Molecule: C=C(C)C(=O)OCCOCC[n+]1ccc(CCCCCCCCCCCCC)cc1.[Cl-] [2-(4-Tridecylpyridin-1-uim)ethoxyethyl methacrylate chloride]
- Log10 reduction of P. aeruginosa (P. aeruginosa; [3]): 1 Log10
- Log10 reduction of S. aureus [1, 3]: >4 Log10

Molecule: C=C(C)C(=O)OCCOCC[n+]1ccc(CCCCCCCCCCCCCCCCC)cc1.[Cl-] [2-(4-heptadecylpyridin-1-uim)ethoxyethyl methacrylate chloride]
- Log10 reduction of P. aeruginosa (P. aeruginosa; [3]): <1 Log10
- Log10 reduction of S. aureus [1, 3]: >1 Log10

Molecule: C=C(C)C(=O)OCCOCC[N+](C)(C)CCCCCCCCCCCCCCCC.[Cl-] [2-(N,N,N-Cetyldimethylammonium)ethoxyethyl methacrylate chloride]
- Log10 reduction of P. aeruginosa (P. aeruginosa; [3]): >1 Log10
- Log10 reduction of S. aureus [1, 3]: >1 Log10

Molecule: C=C(C)C(=O)OCC[N+](C)(C)CCOCCOc1ccc(C(C)(C)CC(C)(C)C)cc1.[Cl-] [2-(methacryloyloxy)-N,N-dimethyl-N-(2-(2-(4-(2,4,4-trimethylpentan-2-yl)phenoxy)ethoxy)ethyl)ethan-1-aminium chloride]
- Log10 reduction of P. aeruginosa (P. aeruginosa; [3]): 1 Log10
- Log10 reduction of S. aureus ([2]; 1% w/w in hydrogel, 0 washes with 1 mL water): >4 Log10
- Log10 reduction of S. aureus ([2]; 1% w/w in hydrogel, 5 washes with 1 mL water): >3 Log10
- Log10 reduction of S. aureus ([2]; 1% w/w in hydrogel, 20 washes with 1 mL water): 4 Log10
- Log10 reduction of S. aureus ([2]; 1% w/w in hydrogel, 2 hours soaking in water): >3 Log10
- Log10 reduction of S. aureus [1, 3]: >4 Log10

Molecule: CC(C)O [60% Isopropanol, Isopropanol]
- Log10 reduction of S. aureus [2, 4]: >4 Log10
- Log10 reduction of S. aureus [2, 5]: <1 Log10

Molecule: CCO [70% Ethanol, Ethanol]
- Log10 reduction of S. aureus [2, 4]: >4 Log10
- Log10 reduction of S. aureus [2, 5]: <1 Log10

Molecule: CC(C)(C)CC(C)(C)c1ccc(OCCOCC[N+](C)(C)Cc2ccccc2)cc1 [Anti-microbial agent on glass surface, benzethonium chloride]
- Log10 reduction of S. aureus ([2]; benzethonium chloride 0.1% w/w, on glass with no hydrogel or in polymerized hydrogel, 0 washes with 1 mL water): >4 Log10
- Log10 reduction of S. aureus ([2]; benzethonium chloride 0.1% w/w, on glass with no hydrogel or in polymerized hydrogel, 5 washes with 1 mL water): <1 Log10
- Log10 reduction of S. aureus ([2]; benzethonium chloride 0.1% w/w, on glass with no hydrogel or in polymerized hydrogel, 10 washes with 1 mL water): <1 Log10
- Log10 reduction of S. aureus ([1]; benzethonium chloride 0.1% w/w, on glass with no hydrogel or in polymerized hydrogel, 20 washes with 1 mL water): <1 Log10

Molecule: CC(C)(C)CC(C)(C)c1ccc(OCCOCC[N+](C)(C)Cc2ccccc2)cc1 [Benzethonium chloride, benzethonium chloride]
- Log10 reduction of S. aureus ([2]; 0.1% w/w in hydrogel (Example 28), 0 washes with 1 mL water): 2 Log10
- Log10 reduction of S. aureus ([2]; 0.1% w/w in hydrogel (Example 28), 5 washes with 1 mL water): 3 Log10
- Log10 reduction of S. aureus ([2]; 0.1% w/w in hydrogel (Example 28), 2 hours soaking in water): 3 Log10
- Log10 reduction of S. aureus [2, 6]: 2 Log10
- Log10 reduction of S. aureus [2, 7]: 3 Log10
- Log10 reduction of S. aureus ([1]; 0.1% w/w in hydrogel (Example 28), 20 washes with 1 mL water): 2 Log10

Molecule: N=C(NCCCCCCNC(=N)NC(=N)Nc1ccc(Cl)cc1)NC(=N)Nc1ccc(Cl)cc1 [Chlorohexidine]
- Log10 reduction of P. aeruginosa (P. aeruginosa; [8]): >2 Log10
- Log10 reduction of P. aeruginosa (P. aeruginosa; [9]): >4 Log10
- Log10 reduction of S. aureus [2, 6]: >4 Log10
- Log10 reduction of S. aureus [2, 7]: >4 Log10

Molecule: CCCCCCCCCC[N+](C)(C)CCCCCCCCCC.[Cl-] [Didecyldimethylammonium chloride, didecyldimethylammonium chloride]
- Log10 reduction of P. aeruginosa (P. aeruginosa; [8]): 2 Log10
- Log10 reduction of P. aeruginosa (P. aeruginosa; [9]): >4 Log10
- Log10 reduction of S. aureus [2, 6]: >3 Log10
- Log10 reduction of S. aureus [2, 7]: >4 Log10

Molecule: Benzalkonium chloride
- Log10 reduction of P. aeruginosa (P. aeruginosa; [8]): >1 Log10
- Log10 reduction of P. aeruginosa (P. aeruginosa; [9]): >4 Log10
- Log10 reduction of S. aureus [2, 6]: 2 Log10
- Log10 reduction of S. aureus [2, 7]: >4 Log10
